From patent US20240140957A1, “BRIDGED COMPOUNDS AS KRAS G12D INHIBITOR AND DEGRADER AND THE USE THEREOF” (BeiGene Switzerland GmbH, priority 2021, published 2024) come the findings set out here.

Each structure is given as a SMILES string.

As a reminder, the IC50 is the concentration that inhibits the measured activity by half. Read a low IC50 as greater potency in that assay.

One assay deals with KRAS G12D:SOS1 (Homo sapiens, UniProt P01116, G12D). Briefly: KRAS G12D:SOS1 GDP TR-FRET assay. Format: binding. To be noted: GST-KRAS G12D 37.5 nM, GDP 10 μM, His-SOS1 18 nM. Here is the method: (§1) KRAS:SOS1 GDP TR-FRET Assay
(§2) This assay was used to identify compounds which competitively interact with the binding of KRAS protein to SOS1 in the presence of GDP. […] All protein and reaction solutions were prepared in assay buffer containing DPBS pH7.5, 0.1% BSA, and 0.05% Tween 20. Purified GST-tagged WT KRAS or KRAS G12D protein (37.5 nM final assay concentration) and GDP (Sigma, 10 μM final assay concentration) mixture, a serially diluted compound (top final concentration is 50 μM or 10 uM, 3-fold serially diluted, 10 points) and His-tagged SOS1 protein (18 nM final assay concentration) were added into the assay plates (384 well microplate, black, Corning) sequentially. Plates are incubated at 24° C. for 1 hr. Following the incubation, Mab Anti-GST-Tb cryptate (Cisbio) and […] (Cisbio) were added and further incubated at 24° C. for another 1 hr. The TR-FRET signals (ex337 nm, em665 nm/620 nm) were read on BMG PHERAstar FSX instrument. The inhibition percentage of KRAS protein binding with SOS1 in presence of increasing concentrations of compounds was calculated based on the ratio of fluorescence at 665 nm to that at 620 nm. The IC50 value of each compound was calculated from fitting the data to the four-parameter logistic model by Dotmatics.

Assay [1] has as its system pERK1/2 (THR202/TYR204) in AsPC-1 cells. Description: pERK Assay (HTRF) in AsPC-1 cells. Format: cell-based. Conditions: Homo sapiens, ASPC1, 2 h compound treatment. Here is the method:
AsPC-1 cell line was used in this study. […] 30000 cells per well were seeded into a 96-well plate and incubated overnight. […] After 2 h compound treatment, cells were lysed, and the pERK1/2 (THR202/TYR204) level in the cell lysates was detected by HTRF kit (Cisbio). In brief, a total of 16 μL of cell lysate from each well of a 96-well plate was transferred to a 384-well white assay plate. Lysate from each well was incubated with 2 μL of Eu3+-cryptate (donor) labeled anti-phospho-ERK1/2 and 2 μL of D2 (acceptor) labeled anti-phospho-ERK1/2 antibodies (Cisbio) overnight in dark at room temperature. When donor and acceptor are in close proximity, excitation of the donor with laser triggers a Fluorescence Resonance Energy Transfer (FRET) towards the acceptor, which in turn fluoresces at 655 nm wavelength. FRET signals were measured using a PHERAstar FSX reader (BMG Labtech).
Background: In TR-FRET formats the signal depends on donor and acceptor labels being close together.

The next assay addresses WT KRAS:SOS1 (Homo sapiens, UniProt P01116). Description: KRAS WT:SOS1 GDP TR-FRET assay. Format: binding. Conditions: GST-WT KRAS 37.5 nM, GDP 10 μM, His-SOS1 18 nM. Here is the method:
as §1, §2

Sequence of WT KRAS:SOS1 (P01116 1-188 isoform P01116-2): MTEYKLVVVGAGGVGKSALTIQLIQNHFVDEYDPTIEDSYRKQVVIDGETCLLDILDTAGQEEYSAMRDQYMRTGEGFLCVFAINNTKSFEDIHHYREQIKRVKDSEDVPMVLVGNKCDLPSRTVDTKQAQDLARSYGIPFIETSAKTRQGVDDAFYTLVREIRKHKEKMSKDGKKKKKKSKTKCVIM
Sequence of KRAS G12D:SOS1 (P01116 1-188 isoform P01116-2 G12D): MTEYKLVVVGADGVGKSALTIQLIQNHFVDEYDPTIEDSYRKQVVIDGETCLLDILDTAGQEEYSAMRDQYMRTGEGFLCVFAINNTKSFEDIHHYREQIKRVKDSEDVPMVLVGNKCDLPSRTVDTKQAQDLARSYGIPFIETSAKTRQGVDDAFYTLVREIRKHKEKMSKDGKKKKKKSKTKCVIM

Consider `C[C@@H](CN1CCC(F)C1)Oc1nc(N2CC3CCC(C2)N3)c2cc(Cl)c(-c3ccc(F)c4sc(N)nc34)c(F)c2n1` (stereo partly drawn) [Example E24, 4-(4-(3,8-diazabicyclo[3.2.1]octan-3-yl)-6-chloro-8-fluoro-2-(((2S)-1-(3-fluoropyrrolidin-1-yl)propan-2-yl)oxy)quinazolin-7-yl)-7-fluorobenzo[d]thiazol-2-amine], for which the half-inhibitory concentration (IC50) against KRAS G12D:SOS1 came to 2.8 nM; in assay [1], 1270 nM; at WT KRAS:SOS1, 210 nM.

Consider `CC(CN1CCCCC1)Oc1nc(N2CC3CC(C2)N3)c2cc(Cl)c(-c3ccc(F)c4sc(N)nc34)c(F)c2n1` (stereo not drawn) [Example E6, 4-(4-(3,6-diazabicyclo[3.1.1]heptan-3-yl)-6-chloro-8-fluoro-2-((1-(piperidin-1-yl)propan-2-yl)oxy)quinazolin-7-yl)-7-fluorobenzo[d]thiazol-2-amine], for which the values for the IC50 (against KRAS G12D:SOS1; in assay [1]; against WT KRAS:SOS1) were 18 nM, 7080 nM and 1060 nM, respectively.

With `C[C@@H](CN1CCC(F)(F)CC1)Oc1nc(N2C3CCC2CNC3)c2cc(Cl)c(-c3ccc(F)c4sc(N)nc34)c(F)c2n1` [Example E19, 4-(4-(3,8-diazabicyclo[3.2.1]octan-8-yl)-6-chloro-2-(((S)-1-(4,4-difluoropiperidin-1-yl)propan-2-yl)oxy)-8-fluoroquinazolin-7-yl)-7-fluorobenzo[d]thiazol-2-amine], the IC50 was determined as 10 nM on KRAS G12D:SOS1, 3410 nM in assay [1] and 566 nM against WT KRAS:SOS1.

With `CN(C)CCCOc1nc(N2CC3CCC2CN3)c2cc(Cl)c(-c3ccc(F)c4sc(N)nc34)c(F)c2n1` (stereo not drawn) [Example E4, 4-(4-(2,5-diazabicyclo[2.2.2]octan-2-yl)-6-chloro-2-(3-(dimethylamino)propoxy)-8-fluoroquinazolin-7-yl)-7-fluorobenzo[d]thiazol-2-amine], the IC50 against KRAS G12D:SOS1 is 39 nM; in assay [1], more than 10000 nM; at WT KRAS:SOS1, 1100 nM.

In the case of `CN1CCC[C@H]1COc1nc(N2CC3CCC(C2)N3)c2cc(Cl)c(-c3ccc(F)c4sc(N)nc34)c(F)c2n1` [Example E16, 4-(4-(3,8-diazabicyclo[3.2.1]octan-3-yl)-6-chloro-8-fluoro-2-(((S)-1-methylpyrrolidin-2-yl)methoxy)quinazolin-7-yl)-7-fluorobenzo[d]thiazol-2-amine], the IC50 was determined as 2.8 nM on KRAS G12D:SOS1, 1520 nM in assay [1] and 27 nM on WT KRAS:SOS1.

`C[C@@H](CN1CCCCC1)Oc1nc(N2CC3CCC(C2)N3)c2cc(Cl)c(-c3ccc(F)c4sc(N)nc34)c(F)c2n1` [Example E11, 4-(4-(3,8-diazabicyclo[3.2.1]octan-3-yl)-6-chloro-8-fluoro-2-(((S)-1-(piperidin-1-yl)propan-2-yl)oxy)quinazolin-7-yl)-7-fluorobenzo[d]thiazol-2-amine]: the IC50 against KRAS G12D:SOS1 was determined as 1.9 nM; in assay [1], 859 nM; against WT KRAS:SOS1, 30 nM.

In the case of `C[C@@H](CN1CC(F)C1)Oc1nc(N2CC3CCC(C2)N3)c2cc(Cl)c(-c3ccc(F)c4sc(N)nc34)c(F)c2n1` [Example E31, 4-(4-(3,8-diazabicyclo[3.2.1]octan-3-yl)-6-chloro-8-fluoro-2-(((S)-1-(3-fluoroazetidin-1-yl)propan-2-yl)oxy)quinazolin-7-yl)-7-fluorobenzo[d]thiazol-2-amine], the IC50 is 11 nM against KRAS G12D:SOS1, 1900 nM in assay [1] and 1080 nM against WT KRAS:SOS1.

Consider `Nc1nc2c(-c3c(Cl)cc4c(N5C6CCC5CNC6)nc(OC5CC6CCCCN6C5)nc4c3F)ccc(F)c2s1` (stereo not drawn) [Example E39, 4-(4-(3,8-diazabicyclo[3.2.1]octan-8-yl)-6-chloro-8-fluoro-2-((octahydroindolizin-2-yl)oxy)quinazolin-7-yl)-7-fluorobenzo[d]thiazol-2-amine], for which the IC50 is 54 nM on KRAS G12D:SOS1, more than 10000 nM in assay [1] and 8160 nM against WT KRAS:SOS1.

On to `C[C@@H](CN1CC=CCC1)Oc1nc(N2CC3CCC(C2)N3)c2cc(Cl)c(-c3ccc(F)c4sc(N)nc34)c(F)c2n1` [Example E33, 4-(4-(3,8-diazabicyclo[3.2.1]octan-3-yl)-6-chloro-2-(((S)-1-(3,6-dihydropyridin-1(2H)-yl)propan-2-yl)oxy)-8-fluoroquinazolin-7-yl)-7-fluorobenzo[d]thiazol-2-amine], for which the IC50 at KRAS G12D:SOS1 is 6.1 nM; in assay [1] it was 890 nM; against WT KRAS:SOS1 it was 143 nM.

Consider `C[C@@H](CN1CCCCC1)Oc1nc(N2C3CCC2CNC3)c2cc(Cl)c(-c3ccc(F)c4sc(N)nc34)c(F)c2n1` [Example E18, 4-(4-(3,8-diazabicyclo[3.2.1]octan-8-yl)-6-chloro-8-fluoro-2-(((S)-1-(piperidin-1-yl)propan-2-yl)oxy)quinazolin-7-yl)-7-fluorobenzo[d]thiazol-2-amine], for which the concentration for half-maximal inhibition (IC50) came out at 2.5 nM against KRAS G12D:SOS1, 528 nM in assay [1] and 35 nM on WT KRAS:SOS1.

On to `C[C@@H](CN1CCC(F)(F)CC1)Oc1nc(N2CC3CCC(C2)N3)c2cc(Cl)c(-c3ccc(F)c4sc(N)nc34)c(F)c2n1` [Example E17, 4-(4-(3,8-diazabicyclo[3.2.1]octan-3-yl)-6-chloro-2-(((S)-1-(4,4-difluoropiperidin-1-yl)propan-2-yl)oxy)-8-fluoroquinazolin-7-yl)-7-fluorobenzo[d]thiazol-2-amine], for which the IC50 against KRAS G12D:SOS1 amounted to 4.2 nM; in assay [1] it was 2880 nM; against WT KRAS:SOS1, 785 nM.

As for `CC(CN1CCCCC1)Oc1nc(N2C3CCC2CNC3)c2cc(Cl)c(-c3ccc(F)c4sc(N)nc34)c(F)c2n1` (stereo not drawn) [Example E8, 4-(4-(3,8-diazabicyclo[3.2.1]octan-8-yl)-6-chloro-8-fluoro-2-((1-(piperidin-1-yl)propan-2-yl)oxy)quinazolin-7-yl)-7-fluorobenzo[d]thiazol-2-amine], the IC50 was determined as 6.7 nM at KRAS G12D:SOS1, 1150 nM in assay [1] and 50 nM at WT KRAS:SOS1.

Turning to `CC(CN1CCCCC1)Oc1nc(N2CC3COCC(C2)N3)c2cc(Cl)c(-c3ccc(F)c4sc(N)nc34)c(F)c2n1` (stereo not drawn) [Example E21, 4-(4-(3-oxa-7,9-diazabicyclo[3.3.1]nonan-7-yl)-6-chloro-8-fluoro-2-((1-(piperidin-1-yl)propan-2-yl)oxy)quinazolin-7-yl)-7-fluorobenzo[d]thiazol-2-amine], the IC50 against KRAS G12D:SOS1 was 44 nM; in assay [1], more than 10000 nM; against WT KRAS:SOS1, 338 nM.

`CN1C[C@H](F)C[C@H]1COc1nc(N2CC3CCC(C2)N3)c2cc(Cl)c(-c3ccc(F)c4sc(N)nc34)c(F)c2n1` [Example E15, 4-(4-(3,8-diazabicyclo[3.2.1]octan-3-yl)-6-chloro-8-fluoro-2-(((2S,4R)-4-fluoro-1-methylpyrrolidin-2-yl)methoxy)quinazolin-7-yl)-7-fluorobenzo[d]thiazol-2-amine]: the IC50 on KRAS G12D:SOS1 was 4.4 nM; in assay [1], 574 nM; on WT KRAS:SOS1, 83 nM.

As to `CC(CN1C2CCC1CNC2)Oc1nc(N2CC3CCC(C2)N3)c2cc(Cl)c(-c3ccc(F)c4sc(N)nc34)c(F)c2n1` (stereo not drawn) [Example E10, 4-(2-((1-(3,8-diazabicyclo[3.2.1]octan-8-yl)propan-2-yl)oxy)-4-(3,8-diazabicyclo[3.2.1]octan-3-yl)-6-chloro-8-fluoroquinazolin-7-yl)-7-fluorobenzo[d]thiazol-2-amine], the figures for the IC50 (against KRAS G12D:SOS1; in assay [1]; against WT KRAS:SOS1) were 5.7 nM, more than 10000 nM and 387 nM, respectively.

With `CC(CN1CCCCC1)Oc1nc(N2C3CCC2C(N)C3)c2cc(Cl)c(-c3ccc(F)c4sc(N)nc34)c(F)c2n1` (stereo not drawn) [Example E9, 4-(4-(2-amino-7-azabicyclo[2.2.1]heptan-7-yl)-6-chloro-8-fluoro-2-((1-(piperidin-1-yl)propan-2-yl)oxy)quinazolin-7-yl)-7-fluorobenzo[d]thiazol-2-amine], the IC50 at KRAS G12D:SOS1 stood at 26 nM; in assay [1], 7690 nM; on WT KRAS:SOS1, 381 nM.

In the case of `CC(CN1CCCCC1)Oc1nc(N2CC3CCC(C2)N3)c2cc(Cl)c(-c3ccc(F)c4sc(N)nc34)c(F)c2n1` (stereo not drawn) [Example E5, 4-(4-(3,8-diazabicyclo [3.2.1]octan-3-yl)-6-chloro-8-fluoro-2-((1-(piperidin-1-yl)propan-2-yl)_oxy)quinazolin-7-yl)-7-fluorobenzo[d]thiazol-2-amine], the IC50 is 20 nM at KRAS G12D:SOS1, 2870 nM in assay [1] and 402 nM against WT KRAS:SOS1.
